Source: US6774211B1, “Peptide antiangiogenic drugs” (Abbott Laboratories, priority 1998, dated 2004)
Where a SMILES comes first, the peptide text is derived from it. [ ]: non-standard residue; d: D form. Nva = CCC[C@H](N)C(=O)O; Sar = CNCC(=O)O

Test system: Human Microvascular Endothelial Cells (HMVEC)
Assay: Human microvascular endothelial cell (HMVEC) migration assay, modified Boyden chamber
Format: cell-based
Conditions: migration stimulated with 15 ng/ml bFGF/VEGF, compared to positive control
Procedure: The human microvascular endothelial (HMVEC) migration assay was run according to the procedure of S. S. Tolsma, O. V. Volpert, D. J. Good, W. F. Frazier, P. J. Polverini and N. Bouck, J. Cell Biol. 122, 497-511 (1993).
The HMVEC migration assay was carried out using Human Microvascular Endothelial Cells-Dermal (single donor) and Human Microvascular Endothelial Cells, (neonatal). The BCE or HMVEC cells were starved overnight in DME containing 0.1% bovine serum albumin (BSA). Cells were then harvested with trypsin and resuspended in DME with 0.1% BSA at a concentration of 1.5×10^6 cells per ml. Cells were added to the bottom of a 48 well modified Boyden chamber (Nucleopore Corporation, Cabin John, Md.). The chamber was assembled and inverted, and cells were allowed to attach for 2 hours at 37° C. to polycarbonate chemotaxis membranes (5 μm pore size) that had been soaked in 0.1% gelatin overnight and dried. The chamber was then reinverted, and test substances (total volume of 50 μl), including activators, 15 ng/ml bFGF/VEGF, were added to the wells of the upper chamber. The apparatus was incubated for 4 hours at 37° C. Membranes were recovered, fixed and stained (Diff Quick, Fisher Scientific) and the number of cells that had migrated to the upper chamber per […] high power fields counted. Background migration to DME+0.1 BSA was subtracted and the data reported as the number of cells migrated per 10 high power fields (400×) or, when results from multiple experiments were combined, as the percent inhibition of migration compared to a positive control.

Molecule | % Inhib. @ 20 nM | % Inhib. @ 10 nM
N-MeOacetyl-Sar-Gly-Val-D-Ile-Thr-Nva-Ile-Arg-ProNHCH2CH3 [Example 57] | 56.6% | 
N-Succinyl-Sar-Gly-Val-D-Ile-Thr-Nva-Ile-Arg-ProNHCH2CH3 [Example 54] | 81.3% | 
N-Shikimyl-Sar-Gly-Val-D-Ile-Thr-Nva-Ile-Arg-ProNHCH2CH3 [Example 58] | 68.8% | 
N-Nicotinyl-Sar-Gly-Val-D-Ile-Thr-Nva-Ile-Arg-ProNHCH2CH3 [Example 55] | 59.2% | 
N-Propionyl-Sar-Gly-Val-D-Ile-Thr-Nva-Ile-Arg-ProNHCH2CH3 [Example 56] | 49.9% | 
CCC[C@H](NC(=O)[C@@H](NC(=O)[C@H](NC(=O)[C@@H](NC(=O)CNC(=O)CN(C)C(C)=O)C(C)C)[C@H](C)CC)[C@@H](C)O)C(=O)N[C@H](C(=O)N[C@@H](CCCNC(=N)N)C(=O)N1CCC[C@H]1C(=O)NCC)[C@@H](C)CC [Example 1, N-Ac-Sar-Gly-Val-D-Ile-Thr-Nva-Ile-Arg-ProNHCH2CH3] (Ac-[Sar]GV[dI]T[Nva]IRP-NHEt) | 87.3% | 76.9%
N-Ac-Sar-Gly-Val-D-Ile-Thr-Val-Ile-Arg-ProNHCH2CH3 (Ac-[Sar]GV[dI]TVIRP-NHEt) [Example 47] | 69.7% | 
N-Ac-Sar-Gly-Val-D-Ile-Thr-Ala-Ile-Arg-ProNHCH2CH3 [Example 46] | 77.5% | 
N-(2-Furoyl)-Sar-Gly-Val-D-Ile-Thr-Nva-Ile-Arg-ProNHCH2CH3 [Example 59] | 82.3% | 
H-Sar-Gly-Val-D-Ile-Thr-Nva-Ile-Arg-ProNHCH2CH3 [Example 66] | 76.1% | 
N-Ac-Sar-Gly-Val-D-Cha-Thr-Nva-Ile-Arg-ProNHCH2CH3 [Example 28] |  | 47.0%
N-Ac-Sar-Gly-Val-D-Val-Thr-Nva-Ile-Arg-ProNHCH2CH3 [Example 18] |  | 51.4%
N-(Tetrahydro-2-furoyl)-Sar-Gly-Val-D-Ile-Thr-Nva-Ile-Arg-ProNHCH2CH3 [Example 61] |  | 83.7%
N-Butyryl-Sar-Gly-Val-D-Ile-Thr-Nva-Ile-Arg-ProNHCH2CH3 [Example 60] | 75.3% | 
N-Ac-Sar-Gly-Val-D-Ile-Thr-Met-Ile-Arg-ProNHCH2CH3 (Ac-[Sar]GV[dI]TMIRP-NHEt; SMILES CCNC(=O)[C@@H]1CCCN1C(=O)[C@H](CCCNC(=N)N)NC(=O)[C@@H](NC(=O)[C@H](CCSC)NC(=O)[C@@H](NC(=O)[C@H](NC(=O)[C@@H](NC(=O)CNC(=O)CN(C)C(C)=O)C(C)C)[C@H](C)CC)[C@@H](C)O)[C@@H](C)CC) [Example 51] | 67.0% | 
N-Ac-Sar-Gly-Val-D-Ile-Thr-Nva-Ile-Arg-ProNHethyl-(1-pyrrolidine) [Example 5] |  | 87.2%
N-Ac-Sar-Gly-Val-D-Ile-Thr-Gln-Ile-Arg-ProNHCH2CH3 [Example 43] |  | 94.1%
N-Ac-Sar-Gly-Val-D-Ile-Thr-Allylgly-Ile-Arg-ProNHCH2CH3 [Example 49] | 83.4% | 
N-(2-Me-Nicotinyl)-Sar-Gly-Val-D-Ile-Thr-Nva-Ile-Arg-ProNHCH2CH3 [Example 53] | 76.7% | 
N-Ac-Sar-Gly-Val-D-Ile-Thr-Nva-Ile-Arg-ProNHCH(CH3)2 [Example 4] | 71.3% | 
N-Ac-Sar-Gly-Val-D-Ile-Thr-Nva-Ile-Arg-ProNHCH2CH2OCH3 [Example 11] | 70.4% | 
N-Ac-Sar-Gly-Val-D-Ile-Thr-DNva-Ile-Arg-ProNHCH2CH3 [Example 42] | 60.2% | 
